Experimental data: US20040138311A1, “Medicament containing an effector of the glutathione metabolism together with $g(a)-lipoic acid for treating diabetes mellitus” (priority 2001, published 2004)
Structures can show the parent of a compound that is named as a salt.

Assays:
Assay type in all cases: cell-based, human
peritoneal macrophages [1] = assay: Phagocytosis capacity of peritoneal macrophages (cytofluorimetric test with opsonized fluorochrome-marked bacteria); conditions: treatment time of 6 days
Method: Peritoneal macrophages were isolated using a method analogous to the method described in Example 3 and cultivated ex vivo. The phagocytosis capacity was determined by a cytofluorimetric test on the single-cell level. The macrophages were thereby co-cultivated with opsonized and fluorochrome-marked bacteria. The number of bacteria absorbed during a defined period was determined quantitatively by means of the fluorescence intensity in the macrophages and was used as a measurement for their phagocytosis capacity. The influence of the combinations used according to the invention on the phagocytosis capacity of the peritoneal macrophages after a treatment time of 6 days is presented in the following table.

T-lymphocytes = assay: Activation markers CD69, CD25, CD71 of PHA-stimulated T-lymphocytes (activation index); conditions: thiol-deficient cells, 1.0 μg/ml phytohemagglutinin, culture time 72 hours; normal = 1.0
Method: In the cultivation experiment described with reference to Example 1, human T-lymphocytes were stimulated with 1.0 μg/ml phytohemagglutinin. In a culture time of 72 hours, specific markers of the cellular activation were quantitatively detected using cytofluorimetery by means of monoclonal antibodies. The influence of the combinations used according to the invention on the activation markers CD69 (early activation antigen), CD25 (intermediate activation antigen) and CD71 (late activation antigen) of T-lymphocytes was measured. […] It can thus be concluded that the normalization of the cellular thiol status achieved by the combined use of α-lipoic acid and the respective effectors of the glutathione metabolism is accompanied by a restitution of cell function.

peritoneal macrophages [2] = assay: Degree of differentiation and activation of peritoneal macrophages (CD15, CD11c, CD69, CD71 cytofluorimetry); conditions: Control = 1.0; after 6 days of incubation; α-lipoic acid 50 μM, ambroxol 10 μM, enalapril 5 μM, captopril 10 μM
peritoneal macrophages [3] = assay: as above; conditions: Control = 1.0; after 6 days of incubation; α-lipoic acid 50 μM, ambroxol 10 μM, enalapril 5 μM, captopril 10 μM; remark: listed apart in the source
Method: Peritoneal macrophages were isolated from patients during renal replacement therapy using the method described in Example 3 and cultivated in the presence of the combinations of α-lipoic acid and effectors of the glutathione metabolism according to the invention. After 6 days of incubation, the degree of differentiation of the peritoneal macrophages was determined by means of the expression of the cell surface antigens CD15 and CD11c, and the degree of cellular activation was determined using cytofluorimetry by means of the co-expression of the activation antigens CD69 to CD15-positive cells and CD71 to […] cells.

peritoneal macrophages [4] = assay: Intracellular thiol expression of peritoneal macrophages from peritoneal dialysis patients; conditions: time kinetic over 14 days
Method: Peritoneal macrophages were isolated from the effluate of peritoneal dialysis of patients with a high degree of renal insufficiency, absorbed in a cell culture medium and incubated in a gasifying incubation cabinet at 37° C., a relative humidity of 98% and 7.5% relative air-CO2 content. To investigate the influence of the combinations used according to the invention on the thiol status of the peritoneal macrophages, individual fractions were treated with α-lipoic acid, the effectors of the glutathione metabolism ambroxol or the ACE inhibitor enalapril and with the combination of α-lipoic acid/ambroxol or α-lipoic acid/enalapril, while an additional fraction was maintained as an untreated control. The cellular thiol status was determined using the measurement methods described in Example 1. FIG. 4 illustrates the effect of the combination of α-lipoic acid and ambroxol (FIG. 4a) and α-lipoic acid and enalapril (FIG. 4b) in a time kinetic over 14 days […].

[5] = test system: lymphocytes (peripheral immune cells); assay: Membrane-bound thiol expression of thiol-depleted peripheral immune cells (CMTMR flow cytofluorimetry); conditions: α-lipoic acid 50 μM, captopril 10 μM, combination at the same concentrations
Method: Peripheral immune cells from healthy donors (n=9) were isolated from the peripheral blood. The major fraction of the resulting total population of mononuclear cells regularly represents lymphocytes with a relative percentage of approximately 90%, depending on the donor. 10% of the mononuclear cells are represented by monocytes. The mononuclear cells obtained were absorbed in special cell culture media and incubated in a gasifying incubation cabinet at 37° C., a relative humidity of 98% and 5% relative air-CO2 content. […] To test the influence of the combinations used according to the invention on the thiol status of thiol-deficient immune cells, these cells were artificially thiol-depleted. This process was carried out using proven methods by cultivation in thiol-deficient media (RPMI 1603). Comparative cultures using complete media (RPMI) 1640) were used to define the best possible normal value under the culture conditions. The expression of membrane-bound thiol groups was also determined using flow cytofluorimetry. In this case, chloromethyltetramethyl rhodamine (CMTMR) was used as thiol conjugate under the conditions of a blocked membrane potential and an inhibited diffusion capacity of the cells. The fluorescence intensity of the fluorochrome molecules bound to the cell membrane is in turn proportional to the number of thiol groups on the cell surface. The results obtained with this experimental investigation of the influence of the combinations according to the invention on the expression of cell membrane bound thiols are presented in FIG. 2 for the combinations of α-lipoic acid and ambroxol (FIG. 2a) and α-lipoic acid and enalapril (FIG. 2b). The following table presents the results for the combination of α-lipoic acid and captopril.

peritoneal macrophages [6] = assay: Membrane thiol expression of peritoneal macrophages from peritoneal dialysis patients; conditions: α-lipoic acid effect disappeared after 4 days of treatment
Method: Peritoneal macrophages were isolated from the effluate of peritoneal dialysis of patients with a high degree of renal insufficiency, absorbed in a cell culture medium and incubated in a gasifying incubation cabinet at 37° C., a relative humidity of 98% and 7.5% relative air-CO2 content. To investigate the influence of the combinations used according to the invention on the thiol status of the peritoneal macrophages, individual fractions were treated with α-lipoic acid, the effectors of the glutathione metabolism ambroxol or the ACE inhibitor enalapril and with the combination of α-lipoic acid/ambroxol or α-lipoic acid/enalapril, while an additional fraction was maintained as an untreated control. The cellular thiol status was determined using the measurement methods described in Example 1. […] The membrane expression of thiols was determined on the basis of the median fluorescence intensity (mfi) of the specimen (3000 cells/measurement) after coupling to a chlormethyl-fluorochrome derivative.

[7] = test system: lymphocytes (peripheral immune cells); assay: Intracellular thiol expression of thiol-depleted peripheral immune cells (CMFDA flow cytofluorimetry); conditions: thiol-deficient conditions (1603), 10-20% thiol reduction
Method: Peripheral immune cells from healthy donors (n=9) were isolated from the peripheral blood. The major fraction of the resulting total population of mononuclear cells regularly represents lymphocytes with a relative percentage of approximately 90%, depending on the donor. 10% of the mononuclear cells are represented by monocytes. The mononuclear cells obtained were absorbed in special cell culture media and incubated in a gasifying incubation cabinet at 37° C., a relative humidity of 98% and 5% relative air-CO2 content. […] To test the influence of the combinations used according to the invention on the thiol status of thiol-deficient immune cells, these cells were artificially thiol-depleted. This process was carried out using proven methods by cultivation in thiol-deficient media (RPMI 1603). Comparative cultures using complete media (RPMI) 1640) were used to define the best possible normal value under the culture conditions. […] Primarily non-fluorogenic CMFDA is thereby passively absorbed by the cell. By means of the chlormethyl group, there is a bonding to cytoplasmic thiol groups. […] The median fluorescence intensity of the specimen (10,000 cells) is directly proportional to the concentration of the intracellular thiol groups. […] The data are presented as the ratio of the cellular fluorescence intensity to the respective calibration particles (beads) that were analyzed simultaneously. […]

peritoneal macrophages [8] = assay: Stability of membrane-bound thiol expression in peritoneal macrophages in the dialysis model; conditions: 14 days, high-glucose dialysis solution
Method: (§1) The combinations of thiol-restored peritoneal macrophages used according to the invention were extracted from this test system after 6 days and cultivated over a period of 14 days in a dialysis model. For this purpose the peritoneal macrophages were adapted to matrices that were coated with collagen IV and placed in contact with conventional high-glucose dialysis solution 3 times a day for 60 minutes each time. In this case, the model was used for the induction of a combined hyperglycemic/osmotic stress. […] The membrane expression of thiol was determined on the basis of the median fluorescence intensity (mfi) of the specimen (3000 cells/measurement) after coupling to a chlormethyl-fuorochrome derivative. […] Here, too, there is a mono-effect of α-lipoic acid, although it lasts only briefly and after approximately 4 days in the dialysis model is only approximately 50% as effective as the combinations. A similar result is apparent in the curves of the membrane-bound thiol expression illustrated in FIG. 7.

peritoneal macrophages [9] = assay: Stability of intracellular thiol restitution in peritoneal macrophages in the dialysis model; conditions: after approximately 4 days in the dialysis model
Method: as §1, with “combinations.” for “combinations. A similar result is apparent in the curves of the membrane-bound thiol expression illustrated in FIG. 7.”

| SMILES | Phagocytosis rate higher than that of the untreated control by a factor of (peritoneal macrophages [1]) | Effect on the activation index of T-lymphocytes (CD69, CD25, CD71; in words) (T-lymphocytes) | CD11c/71 co-expression (peritoneal macrophages [2]) | CD11c expression (peritoneal macrophages [3]) | CD15/69 co-expression (peritoneal macrophages [3]) | CD15 expression (peritoneal macrophages [3]) | Effect on cellular thiol expression of peritoneal macrophages (in words) (peritoneal macrophages [4]) | Membrane-resistant thiol expression ([5]; length of culture 0 d) [mfiBeads/Ratio] | Membrane-resistant thiol expression ([5]; length of culture 1 d) [mfiBeads/Ratio] | Membrane-resistant thiol expression ([5]; length of culture 2 d) [mfiBeads/Ratio] | Membrane-resistant thiol expression ([5]; length of culture 3 d) [mfiBeads/Ratio] | Membrane-resistant thiol expression ([5]; length of culture 4 d) [mfiBeads/Ratio] | Membrane-resistant thiol expression ([5]; length of culture 6 d) [mfiBeads/Ratio] | Membrane-resistant thiol expression ([5]; length of culture 8 d) [mfiBeads/Ratio] | Membrane-resistant thiol expression ([5]; length of culture 10 d) [mfiBeads/Ratio] | Membrane-resistant thiol expression ([5]; length of culture 12 d) [mfiBeads/Ratio] | Membrane-resistant thiol expression ([5]; length of culture 14 d) [mfiBeads/Ratio] | further results |
| --- | --- | --- | --- | --- | --- | --- | --- | --- | --- | --- | --- | --- | --- | --- | --- | --- | --- | --- |
| CCOC(=O)[C@H](CCc1ccccc1)NC(C)C(=O)N1CCCC1C(=O)O (stereo in doubt) [Enalapril, 1-{N-[(S)-1-ethoxycarbonyl-3-phenylpropyl]-L-alanyl}-L-prolin] | 1.53 | equivalent to α-lipoic acid only in the case of the effectuation of the CD25 antigen | 1.10 ± 0.14 | 1.23 ± 0.22 | 1.19 ± 0.12 | 1.21 ± 0.22 | – | – | – | – | – | – | – | – | – | – | – | – |
| Nc1c(Br)cc(Br)cc1CNC1CCC(O)CC1 (centres unmarked) [Ambroxol, hydrochloride] | 1.35 | does not have any influence on one of the three activation markers | 0.96 ± 0.1 | 1.01 ± 0.09 | – | 0.98 ± 0.13 | had no effect | – | – | – | – | – | – | – | – | – | – | – |
| C[C@H](CS)C(=O)N1CCC[C@H]1C(=O)O [Captopril, 1-[(2S)-3-mercapto-2-methylpropionyl]-L-prolin] | – | – | 1.52 ± 0.16 | 1.26 ± 0.24 | 1.69 ± 0.21 | 1.19 ± 0.14 | – | 2.37 ± 0.45 | 2.63 ± 0.39 | 2.54 ± 0.41 | 2.52 ± 0.38 | 2.50 ± 0.41 | 2.46 ± 0.50 | 2.01 ± 0.39 | 1.68 ± 0.29 | 1.02 ± 0.51 | 0.99 ± 0.46 | – |
| O=C(O)CCCCC1CCSS1 (stereo not drawn) [α-lipoic acid] | 1.85 | slight improvement of the cellular activation | 1.08 ± 0.09 | 1.21 ± 0.11 | 1.09 ± 0.08 | 1.18 ± 0.16 | increase of the cellular thiol expression | 2.37 ± 0.45 | 2.65 ± 0.39 | 2.43 ± 0.52 | 2.31 ± 0.36 | 2.26 ± 0.20 | 2.19 ± 0.13 | 1.93 ± 0.20 | 1.63 ± 0.16 | 1.32 ± 0.21 | 1.34 ± 0.20 | Effect on membrane-bound thiol expression of peritoneal macrophages (in words) (peritoneal macrophages [6]): very clear effect; Effect on the intracellular thiol deficit (in words) [7]: not possible to achieve a complete compensation of the thiol deficit; Membrane-bound thiol expression in the dialysis model (in words) (peritoneal macrophages [8]): intermediary; Effectiveness relative to the combinations (peritoneal macrophages [9]): approximately 50% |
